# Laboratory results from the supplement of paper PMC10307832.
# Legend:
# Test in all cases: relative viability (nuclei count vs DMSO), 5 days (fraction); higher = more cells survive
# Crenolanib + Palbociclib = compound: CC1(COc2ccc3c(c2)ncn3-c2ccc3cccc(N4CCC(N)CC4)c3n2)COC1 [Crenolanib] + CC(=O)c1c(C)c2cnc(Nc3ccc(N4CCNCC4)cn3)nc2n(C2CCCC2)c1=O [Palbociclib] (partner 0.5 µM)
# Method in brief: (§1)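 Relative viability divides the nuclei count in treated wells by that in vehicle wells. Lung cancer cell lines were seeded in 1536-well plates, dosed by pin tool the next day, and fixed and stained after 5 days in one step with final 0.05% Triton X-100, 1% formaldehyde and 1 ug/ml Hoechst. Dosing was a single drug or a fixed anchor-drug dose plus five library-drug doses (not always all listed) in √10 steps, and values are medians of duplicate plates imaged at 4×.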
# Tivantinib + Alpelisib = compound: O=C1NC(=O)[C@@H](c2cn3c4c(cccc24)CCC3)[C@@H]1c1c[nH]c2ccccc12 [Tivantinib] + Cc1nc(NC(=O)N2CCC[C@H]2C(N)=O)sc1-c1ccnc(C(C)(C)C(F)(F)F)c1 [Alpelisib] (partner 2 µM)
# Method in brief: as §1
# Crenolanib + Decitabine = compound: CC1(COc2ccc3c(c2)ncn3-c2ccc3cccc(N4CCC(N)CC4)c3n2)COC1 [Crenolanib] + Nc1ncn([C@H]2C[C@H](O)[C@@H](CO)O2)c(=O)n1 [Decitabine] (partner 2 µM)
# Method in brief: as §1
# Crenolanib + Dasatinib = compound: CC1(COc2ccc3c(c2)ncn3-c2ccc3cccc(N4CCC(N)CC4)c3n2)COC1 [Crenolanib] + Cc1nc(Nc2ncc(C(=O)Nc3c(C)cccc3Cl)s2)cc(N2CCN(CCO)CC2)n1 [Dasatinib] (partner 0.075 µM)
# Method in brief: as §1
cell line,measurement,setting,value
UMC-11,relative viability,Crenolanib + Palbociclib; first compound 0.01 µM,0.391
same,relative viability,Crenolanib + Palbociclib; first compound 0.03162 µM,0.334
same,relative viability,Crenolanib + Palbociclib; first compound 0.1 µM,0.349
same,relative viability,Crenolanib + Palbociclib; first compound 0.3162 µM,0.286
same,relative viability,Crenolanib + Palbociclib; first compound 1 µM,0.352
same,relative viability,Tivantinib + Alpelisib; first compound 0.01 µM,0.961
same,relative viability,Tivantinib + Alpelisib; first compound 0.03162 µM,0.939
same,relative viability,Tivantinib + Alpelisib; first compound 0.1 µM,0.876
same,relative viability,Tivantinib + Alpelisib; first compound 0.3162 µM,0.939
same,relative viability,Crenolanib + Decitabine; first compound 0.01 µM,0.669
same,relative viability,Crenolanib + Decitabine; first compound 0.03162 µM,0.578
same,relative viability,Crenolanib + Decitabine; first compound 0.1 µM,0.627
same,relative viability,Crenolanib + Decitabine; first compound 0.3162 µM,0.588
same,relative viability,Crenolanib + Decitabine; first compound 1 µM,0.557
same,relative viability,Crenolanib + Dasatinib; first compound 0.01 µM,0.45
same,relative viability,Crenolanib + Dasatinib; first compound 0.03162 µM,0.52
same,relative viability,Crenolanib + Dasatinib; first compound 0.1 µM,0.427
same,relative viability,Crenolanib + Dasatinib; first compound 0.3162 µM,0.506
same,relative viability,Crenolanib + Dasatinib; first compound 1 µM,0.481
